A short description of test [1]: Inhibition of Escherichia coli UPPS.
Test [2] in a line: Inhibition of Sulfolobus solfataricus HPPS. Details: species or system Saccharolobus solfataricus.
Test [3] can be described thus: Inhibition of Escherichia coli OPPS.

Where “and” joins values, the source holds several entries; their conditions need not be identical. Identical values can stand only once.

As usually defined, the IC50 is the concentration that inhibits the measured activity by half. In test [1], `O=P([O-])(O)C(O)(C[n+]1cccc(-c2ccccc2)c1)P(=O)(O)O` (configuration not stated) registered a concentration for half-maximal inhibition (IC50) of 48 µM. The same measure, in the same setting: as for `O=P([O-])(O)C(O)(C[n+]1cccc(F)c1)P(=O)(O)O` (configuration not stated), the figure is 490 µM.

In test [1], `O=P(O)(O)C(O)(CCc1cccc(-c2ccccc2-c2ccccc2)c1)P(=O)(O)O` returned a 50% inhibitory concentration (IC50) of 3.1 µM. For `O=P(O)(O)C(O)(Cc1cccc(-c2cccc(-c3ccccc3)c2)c1)P(=O)(O)O`, the values for the IC50 in test [2] and in test [3] were 0.46 µM and 0.43 µM, respectively. In test [1], `O=P(O)(O)C(O)(CCc1cccc(-c2ccc(-c3ccccc3)cc2)c1)P(=O)(O)O` showed a 50% inhibitory concentration (IC50) of 10 µM.

The compound `O=P(O)(O)C(O)(c1cccc(-c2cccc(-c3ccccc3)c2)c1)P(=O)(O)O` had a half-inhibitory concentration (IC50) in test [1] of 1.8 µM. Same read-out and setting: to `O=P([O-])(O)C(C[n+]1cccc(-c2ccccc2-c2ccccc2)c1)P(=O)(O)O` (configuration not stated) belongs 120 µM. As for `O=P(O)(O)C(O)(Cc1cccc(-c2cccc(NS(=O)(=O)c3ccc4ccccc4c3)c2)c1)P(=O)(O)O`, the IC50 worked out at 0.42 µM in test [2] and 5.4 µM in test [3].

As for `O=P(O)(O)C1(P(=O)(O)O)CC(c2ccc(Cl)c(Cl)c2)=NO1`, the IC50 in test [1] was 87 µM. The same measure, in the same setting: as for `O=P(O)(O)C(O)(Cc1ccc(-c2ccc(-c3ccccc3)cc2)cc1)P(=O)(O)O`, the figure is 2 µM. On the same count and under the same terms, to `O=P(O)(O)C(O)(CCc1ccc(-c2cccc3c2oc2ccccc23)cc1)P(=O)(O)O` belongs 12 µM.

As to `O=P(O)(O)C(O)(COc1cccc(-c2cccc(-c3ccccc3)c2)c1)P(=O)(O)O`, the IC50 in test [2] was 360 µM; in test [3], 0.075 µM. The like results for `O=P(O)(O)C(O)(Cc1cccc(-c2ccc(-c3ccccc3)cc2)c1)P(=O)(O)O` were, in that order, 2.7 µM and 870 µM. `O=P(O)(O)C(O)(Cc1cccc(-c2ccccc2)c1)P(=O)(O)O` registered an IC50 in test [1] of 6.8 µM.

Turning to `O=P(O)(O)C(O)(CCc1cccc(-c2cccc(-c3ccccc3)c2)c1)P(=O)(O)O`, the concentration for half-maximal inhibition (IC50) in test [1] worked out at 5.5 µM.

In test [1], `O=P(O)(O)C(O)(Cc1ccc(-c2cccc(-c3ccccc3)c2)cc1)P(=O)(O)O` had an IC50 of 1 µM. In turn, `O=P([O-])(O)C(C[n+]1ccc(-c2ccc(-c3ccccc3)cc2)cc1)P(=O)(O)O` (configuration not stated) registered an IC50 in test [1] of 28 µM.

In test [1], `O=P([O-])(O)C(C[n+]1cccc(-c2ccc(-c3ccccc3)cc2)c1)P(=O)(O)O` (configuration not stated) registered an IC50 of 35 µM. This IC50 and that of the compound before are within 1.5-fold of each other. On the same count and under the same terms, to `CC(C)=CCC/C(C)=C/Cc1ccc[n+](CC(P(=O)([O-])O)P(=O)(O)O)c1` (configuration not stated) belongs 89 µM; to `O=P([O-])(O)C(C[n+]1cccc(-c2cccc(-c3ccccc3)c2)c1)P(=O)(O)O` (configuration not stated), 68 µM and 21 µM; to `O=P([O-])(O)C(O)(C[n+]1ccc(-c2cccc3c2oc2ccccc23)cc1)P(=O)(O)O` (configuration not stated), 13 µM. For the compound `O=P([O-])(O)C(C[n+]1cccc(-c2cccc3c2oc2ccccc23)c1)P(=O)(O)O` (configuration not stated), half-maximal inhibition in test [1] (IC50) required 34 µM.

Take `O=P(O)(O)C(O)(Cc1cccc(-c2cccc3c2oc2ccccc23)c1)P(=O)(O)O`: the half-inhibitory concentration (IC50) in test [2] worked out at 1.2 µM; in test [3] it was 32 µM.

In test [1], `O=P(O)(O)C(O)(Cc1ccccc1)P(=O)(O)O` returned an IC50 of 200 µM.

In the case of `O=P(O)(O)C(CCCc1ccc(-c2ccccc2)cc1)P(=O)(O)O`, the half-inhibitory concentration (IC50) in test [1] is 69 µM.

With `O=P(O)(O)C(O)(Cc1cnc2ccccn12)P(=O)(O)O` [MINODRONIC ACID], the IC50 in test [2] came out at 0.05 µM; in test [3] it was 2.1 µM. As to `O=P(O)(O)C(O)(Cc1cccnc1)P(=O)(O)O` [RISEDRONIC ACID], the IC50 in test [2] came out at 0.09 µM; in test [1] it was 660 µM; in test [3] it was 0.038 µM. In the case of `O=P(O)(O)C(O)(Cn1ccnc1)P(=O)(O)O` [ZOLEDRONIC ACID], the results for the concentration for half-maximal inhibition (IC50) in test [2] and in test [3] were 0.09 µM and 0.038 µM, respectively.

Source of the values: ChEMBL document CHEMBL1145505, “Bisphosphonates target multiple sites in both cis- and trans-prenyltransferases” (Proc Natl Acad Sci U S A, 2007).
